Measured values: PMC2668075 (PLoS ONE, 2009)
Peptide text beside a SMILES is read from it. * marks the point of attachment. AMC = Cc1cc(=O)oc2cc(N*)ccc12

Target: T1, HcDppIVA (Histoplasma ohiense, UniProt A0ACF1AGW9)
T1 construct: gene DPP4
Details: pH and temperature series (optimum pH 8, 42 °C); 1 h

## Cc1cc(=O)oc2cc(NC(=O)[C@@H]3CCCN3C(=O)CN)ccc12 [Gly-pro-AMC] (H-Gly-Pro-{AMC})
  fluorescent AMC release assay: We measured DppIV activity of the purified preparation towards Gly-pro-AMC
